This passage reports IC50 and viability, T/C results from PubChem BioAssay AID2060335 (Molecular Pharmacology Branch, DTP, NCI, 2025).

Several values for one entry are separate records, joined by “and”; a condition that tells them apart may be missing. Identical values can stand only once. Some results are limits rather than exact numbers.

This test has as its system DU-145 multicell spheroids with HUVEC/MSC, viability. The test can be described thus: Anticancer human tumor DU-145 cell line growth inhibition [IpAb].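 On all read-outs here: spheroids exposed to agents for seven days before measurement.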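 On viability, T/C: percent of DMSO vehicle control viability so 100% = untreated level.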 The following applies: for viability, T/C: stronger effect = lower value. The text has this:
Combinatorial screen of targeted agents with ipatasertib and abemaciclib in multi-cell type tumor spheroids
A high-throughput screen of multi-cell type tumor spheroids was designed to identify active combinations of targeted small molecules and ipatasertib or abemaciclib. Complex spheroids include a stromal component modeled by human endothelial cells (HUVEC) and fibroblasts modeled by human mesenchymal stem cells (MSCs). The concentration ranges selected for each drug and investigational agent were based upon clinically achievable concentrations if the clinical Cmax of the agent was known.
Compounds. The drugs and investigational agents: ipatasertib (NSC767898), abemaciclib(NSC768073), selumetinib (NSC741078), trametinib (758246), adavosertib (NSC754352), everolimus (NSC733504), sapanisertib (NSC764658), vemurafenib (NSC761431), venetoclax (NSC766270), copanlisib (NSC809693), apelisib (NSC765974), palbociblib (NSC758247), vemurafenib (NSC761431), dabrafenib (NSC764134), ravoxertinib (NSC781343), BMS-387032 (NSC767048), sotorasib (NSC818433), talazoparib (NSC767125) and afursertib (NSC778305), were obtained from the National Cancer Institute (NCI) Developmental Therapeutics Program Chemical Repository. The FDA-approved anticancer drug set is available from the NCI Developmental Therapeutics Program. […] The stock solutions were prepared in dimethyl sulfoxide (DMSO, Sigma-Aldrich, St. Louis, MO, cat. D2650) at 800-fold the tested concentration and stored at -70 degrees C prior to their use. All drugs and investigational agents were tested over a range starting from a high concentration at or near the clinical Cmax and decreasing in half-log increments. If the clinical Cmax for an agent had not been determined, the highest concentration tested was 10 microM.
NCI60 Cell Culture. NCI60 cell lines were obtained from the NCI Developmental Therapeutics Program Tumor Repository. For each lot of cells, the Repository performed Applied Biosystems AmpFLSTR Identifiler testing with PCR amplification to confirm consistency with the published Identifier STR profile for each cell line. Cells were kept in continuous culture for no more than 20 passages. The optimal seeding densities for each of the cell lines at each time point assessed were determined prior to performing the concentration response studies. Briefly, the NCI60 human tumor lines were grown as monolayers in RPMI 1640 medium supplemented with 10% FBS and 2 mmol/L L-glutamine.
An additional 9 lines were from the NCI60 cell line panel including MDA-MB-231 breast carcinoma, MDA-MB-468 breast carcinoma, MCF7 breast carcinoma, Hs578T breast carcinoma, MALME-3M melanoma, SK-MEL-2 melanoma, SK-OV-3 ovarian carcinoma, DU-145 prostate carcinoma, PC-3 prostate carcinoma, all cell lines along with major genetic alterations are listed on Table 2. Pooled donor human umbilical vein endothelial cells (HUVEC, Lonza, cat. CC-2519) and human mesenchymal stem cells (hMSC, Lonza, cat. PT-2501) were purchased from Lonza (Walkersville, MD).
PDMR cell lines were grown in complete medium (DC medium): Dulbecco's modified Eagle's medium (DMEM)/F12 supplemented with 5% fetal bovine serum (FBS), 2 mM L-glutamine, 100 U/mL penicillin and 100 µg/ml streptomycin, 0.4 µg/ml hydrocortisone, 10 ng/ml epidermal growth factor (EGF) recombinant human protein, 24 µg/mL adenine, and 0.1 mg/mL primocin. During culture from frozen stock vials, PDMR cells were cultured in the same medium containing 10 µM Y-27632 (see Table 3). The PDCs were cultured in complete DMEM/F12 media without 10 microM Y-27632 dihydrochloride for at least two passages prior to the screen. The pooled donor HUVEC and hMSC were cultured in endothelial cell growth medium 2 (PromoCell, Heidelberg, Germany, cat. C-22011) and mesenchymal stem cell growth medium 2 (PromoCell, cat. C-28009), respectively. For all experiments, HUVEC and hMSC were used at passages </=5.
[…]

The mark [1] stands for this setting: curve of first compound, second compound 0.01 µM.
[2] abbreviates: curve of first compound, second compound 0.0316 µM.
Where [3] appears, read: curve of first compound, second compound 0.1 µM.
Setting [4] is: curve of first compound, second compound 0.316 µM.
Setting [5] is: curve of first compound, second compound 1 µM.
[6] abbreviates: second compound 0.01 µM, first compound 0.0316 µM.
Where [7] appears, read: second compound 0.01 µM, first compound 0.1 µM.
Setting [8] is: second compound 0.01 µM, first compound 0.316 µM.
The mark [9] stands for this setting: second compound 0.01 µM, first compound 1 µM.
Where [10] appears, read: second compound 0.01 µM, first compound 3.16 µM.
Setting [11] is: second compound 0.01 µM, first compound 10 µM.
Where [12] appears, read: second compound 0.0316 µM, first compound 0.0316 µM.
Where [13] appears, read: second compound 0.0316 µM, first compound 0.1 µM.
The mark [14] stands for this setting: second compound 0.0316 µM, first compound 0.316 µM.
[15] abbreviates: second compound 0.0316 µM, first compound 1 µM.
The mark [16] stands for this setting: second compound 0.0316 µM, first compound 3.16 µM.
Setting [17] is: second compound 0.0316 µM, first compound 10 µM.
Where [18] appears, read: second compound 0.1 µM, first compound 0.0316 µM.
[19] abbreviates: second compound 0.1 µM, first compound 0.1 µM.
Where [20] appears, read: second compound 0.1 µM, first compound 0.316 µM.
Where [21] appears, read: second compound 0.1 µM, first compound 1 µM.
[22] abbreviates: second compound 0.1 µM, first compound 3.16 µM.
[23] abbreviates: second compound 0.1 µM, first compound 10 µM.
[24] abbreviates: second compound 0.316 µM, first compound 0.0316 µM.
Setting [25] is: second compound 0.316 µM, first compound 0.1 µM.
[26] abbreviates: second compound 0.316 µM, first compound 0.316 µM.
Where [27] appears, read: second compound 0.316 µM, first compound 1 µM.
The mark [28] stands for this setting: second compound 0.316 µM, first compound 3.16 µM.
Setting [29] is: second compound 0.316 µM, first compound 10 µM.
The mark [30] stands for this setting: second compound 1 µM, first compound 0.0316 µM.
The mark [31] stands for this setting: second compound 1 µM, first compound 0.1 µM.
Where [32] appears, read: second compound 1 µM, first compound 0.316 µM.
The mark [33] stands for this setting: second compound 1 µM, first compound 1 µM.
Setting [34] is: second compound 1 µM, first compound 3.16 µM.
Setting [35] is: second compound 1 µM, first compound 10 µM.

As to `CCCS(=O)(=O)Nc1ccc(F)c(C(=O)c2c[nH]c3ncc(-c4ccc(Cl)cc4)cc23)c1F` + CCN1CCN(Cc2ccc(Nc3ncc(F)c(-c4cc(F)c5nc(C)n(C(C)C)c5c4)n3)nc2)CC1, the IC50 is greater than 10 µM under setting [1]; greater than 10 µM under setting [2]; greater than 10 µM under setting [3]; greater than 10 µM under setting [4]; greater than 10 µM under setting [5]. Moreover, the viability, T/C under setting [6] is 107%; the viability, T/C under setting [7] is 107%; the viability, T/C under setting [8] was 102%; the viability, T/C under setting [9] was 115%; the viability, T/C under setting [10] was 106%; the viability, T/C under setting [11] is 79.8%. The viability, T/C under setting [12] was 101%; the viability, T/C under setting [13] was 107%; the viability, T/C under setting [14] was 105%; the viability, T/C under setting [15] was 115%; the viability, T/C under setting [16] is 106%; the viability, T/C under setting [17] was 72.4%. For the same compound, the viability, T/C is 95.8% under setting [18]; 95.5% under setting [19]; 99.3% under setting [20]; 107% under setting [21]; 98.3% under setting [22]; 65.9% under setting [23]. The viability, T/C was 80.3% under setting [24]; 84.9% under setting [25]; 87.1% under setting [26]; 88.6% under setting [27]; 89.4% under setting [28]; 52.4% under setting [29]. The viability, T/C under setting [30] is 70.1%; the viability, T/C under setting [31] was 66.9%; the viability, T/C under setting [32] was 67%; the viability, T/C under setting [33] is 64.6%; the viability, T/C under setting [34] was 69.9%; the viability, T/C under setting [35] is 54.8%.
As for `Cn1ncnc1[C@H]1c2n[nH]c(=O)c3cc(F)cc(c23)N[C@@H]1c1ccc(F)cc1`, the viability, T/C was 109% and 101% (compound 0.000316 µM); 105% and 99.7% (compound 0.001 µM); 97.9% and 92.2% (compound 0.00316 µM); 99.3% and 96.5% (compound 0.01 µM); 95.1% and 97.6% (compound 0.0316 µM); 92.9% and 80.5% (compound 0.1 µM). Also, the IC50 (curve of compound) is greater than 0.1 µM.
As for `Cn1ncc(Cl)c1-c1cc(C(=O)NC(CN)Cc2cccc(F)c2)sc1Cl` (centres undefined), the viability, T/C (compound 0.0316 µM) is 92.5% and 86.1%; the viability, T/C (compound 0.1 µM) is 74.3% and 61.8%; the viability, T/C (compound 0.316 µM) was 41.4% and 33.2%; the viability, T/C (compound 1 µM) was 27.6% and 23.1%; the viability, T/C (compound 3.16 µM) is 20.3% and 15.2%; the viability, T/C (compound 10 µM) is 1.17% and 1.6%. Further, the IC50 (curve of compound) was 0.271 µM and 0.163 µM.
Take `C=CC(=O)N1CCN(c2nc(=O)n(-c3c(C)ccnc3C(C)C)c3nc(-c4c(O)cccc4F)c(F)cc23)C(C)C1` (centres undefined) + CCN1CCN(Cc2ccc(Nc3ncc(F)c(-c4cc(F)c5nc(C)n(C(C)C)c5c4)n3)nc2)CC1: the IC50 by setting is: under setting [1], 7.92 µM; under setting [2], 7.52 µM; under setting [3], 8.37 µM; under setting [4], 9.55 µM; under setting [5], 6.07 µM. Besides, the viability, T/C was 94.6% under setting [6]; 104% under setting [7]; 111% under setting [8]; 104% under setting [9]; 86.1% under setting [10]; 40.6% under setting [11]. The viability, T/C is 91.2% under setting [12]; 95% under setting [13]; 98.7% under setting [14]; 96.5% under setting [15]; 81.5% under setting [16]; 39.4% under setting [17]. In addition, the viability, T/C runs as follows: under setting [18], 82.8%; under setting [19], 81%; under setting [20], 91.5%; under setting [21], 93.3%; under setting [22], 78.4%; under setting [23], 44.8%. Moreover, the viability, T/C by setting is: under setting [24], 78.8%; under setting [25], 78.3%; under setting [26], 82.4%; under setting [27], 85.8%; under setting [28], 77.3%; under setting [29], 49%. The viability, T/C under setting [30] was 66.1%; the viability, T/C under setting [31] was 64.4%; the viability, T/C under setting [32] was 65.9%; the viability, T/C under setting [33] is 70.5%; the viability, T/C under setting [34] was 67.5%; the viability, T/C under setting [35] is 37.3%.

Broadly, the IC50 is the concentration that gives 50% inhibition. As usually defined, the viability, T/C is the result in the treated group divided by that in the control group, in per cent.
